Results published in the supplement of paper PMC10307832.

Assays:
Assay in all cases: relative viability (nuclei count vs DMSO), 5 days (fraction); higher = more cells survive
Quizartinib + Trametinib = compound: CC(C)(C)c1cc(NC(=O)Nc2ccc(-c3cn4c(n3)sc3cc(OCCN5CCOCC5)ccc34)cc2)no1 [Quizartinib] + CC(=O)Nc1cccc(-n2c(=O)n(C3CC3)c(=O)c3c(Nc4ccc(I)cc4F)n(C)c(=O)c(C)c32)c1 [Trametinib] (partner 0.02 µM)
In short: (§1)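 The day after seeding in 1536-well plates, lung cancer cell lines were treated by pin tool with a single drug, or with a fixed anchor-drug dose together with five library-drug doses (not always all listed) in √10 steps. After 5 days, a combined fix-and-stain solution (final 0.05% Triton X-100, 1% formaldehyde, 1 ug/ml Hoechst) was added. Nuclei counted on 4× images gave relative viability as treated counts over vehicle counts, reported as the median of duplicate plates.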

Quizartinib + Alpelisib = compound: CC(C)(C)c1cc(NC(=O)Nc2ccc(-c3cn4c(n3)sc3cc(OCCN5CCOCC5)ccc34)cc2)no1 [Quizartinib] + Cc1nc(NC(=O)N2CCC[C@H]2C(N)=O)sc1-c1ccnc(C(C)(C)C(F)(F)F)c1 [Alpelisib] (partner 2 µM)
In short: as §1

Quizartinib + Phenformin = compound: CC(C)(C)c1cc(NC(=O)Nc2ccc(-c3cn4c(n3)sc3cc(OCCN5CCOCC5)ccc34)cc2)no1 [Quizartinib] + N=C(N)NC(=N)NCCc1ccccc1 [Phenformin] (partner 250 µM)
In short: as §1

YM155 + Vorinostat = compound: COCC[n+]1c2c(n(Cc3cnccn3)c1C)C(=O)c1ccccc1C2=O [YM155] + O=C(CCCCCCC(=O)Nc1ccccc1)NO [Vorinostat] (partner 1 µM)
In short: as §1

Cell Line | relative viability (Quizartinib + Trametinib; first compound 0.001 µM) | relative viability (Quizartinib + Trametinib; first compound 0.003162 µM) | relative viability (Quizartinib + Trametinib; first compound 0.01 µM) | relative viability (Quizartinib + Trametinib; first compound 0.03162 µM) | relative viability (Quizartinib + Trametinib; first compound 0.1 µM) | relative viability (Quizartinib + Alpelisib; first compound 0.001 µM) | relative viability (Quizartinib + Alpelisib; first compound 0.003162 µM) | relative viability (Quizartinib + Alpelisib; first compound 0.01 µM) | relative viability (Quizartinib + Alpelisib; first compound 0.03162 µM) | relative viability (Quizartinib + Alpelisib; first compound 0.1 µM) | relative viability (Quizartinib + Phenformin; first compound 0.001 µM) | relative viability (Quizartinib + Phenformin; first compound 0.003162 µM) | relative viability (Quizartinib + Phenformin; first compound 0.01 µM) | relative viability (Quizartinib + Phenformin; first compound 0.03162 µM) | relative viability (Quizartinib + Phenformin; first compound 0.1 µM) | relative viability (YM155 + Vorinostat; first compound 0.002 µM) | relative viability (YM155 + Vorinostat; first compound 0.006325 µM) | relative viability (YM155 + Vorinostat; first compound 0.02 µM) | relative viability (YM155 + Vorinostat; first compound 0.06325 µM)
NCI-H1975 | 0.285 | 0.381 | 0.287 | 0.435 | 0.322 | 0.638 | 0.521 | 0.655 | 0.545 | 0.585 | 0.395 | 0.406 | 0.476 | 0.399 | 0.404 | 0.661 | 0.667 | 0.641 | 0.442
NCI-H1993 | 0.445 | 0.46 | 0.576 | 0.619 | 0.527 | 0.668 | 0.638 | 0.614 | 0.65 | 0.642 | 0.478 | 0.48 | 0.523 | 0.441 | 0.625 | 0.739 | 0.714 | 0.667 | 0.523
NCI-H2009 | 0.266 | 0.251 | 0.218 | 0.246 | 0.247 | 1.14 | 1.01 | 1.19 | 1.09 | 1.13 | 0.464 | 0.48 | 0.504 | 0.44 | 0.174 | 0.685 | 0.693 | 0.726 | 0.621
NCI-H2023 | 0.643 | 0.504 | 0.533 | – | 0.615 | 0.562 | 0.467 | 0.665 | 0.323 | 0.575 | 0.347 | 0.378 | 0.372 | – | 0.312 | 0.738 | 0.817 | 0.792 | 0.171
NCI-H2085 | 0.62 | 0.528 | 0.567 | 0.531 | 0.515 | 0.88 | 0.881 | 0.997 | 0.822 | 0.827 | 0.631 | 0.648 | 0.753 | 0.673 | 0.574 | 0.677 | 0.795 | 0.757 | 0.625
NCI-H2087 | 0.233 | 0.217 | 0.223 | 0.202 | 0.19 | 1.05 | 0.98 | 1.19 | 1.14 | 0.836 | – | 0.429 | 0.458 | 0.369 | 0.516 | 0.667 | 0.759 | 0.55 | 0.44
NCI-H2126 | 0.575 | 0.552 | 0.604 | 0.53 | 0.492 | 0.76 | 0.726 | 0.757 | 0.774 | 0.753 | 0.518 | 0.58 | 0.534 | – | 0.576 | 0.782 | 0.834 | 0.865 | 0.851
NCI-H2170 | 0.868 | 0.907 | 0.92 | 1.01 | 0.947 | 0.769 | 0.683 | 0.956 | 0.787 | 0.809 | 0.415 | 0.432 | 0.403 | 0.436 | 0.378 | 0.725 | 0.752 | 0.863 | 0.842
NCI-H2228 | 0.513 | 0.593 | 0.484 | 0.436 | 0.511 | 0.771 | 0.58 | 0.79 | 0.721 | 0.678 | 0.242 | 0.228 | 0.52 | 0.345 | 0.26 | 0.451 | 0.82 | 0.585 | 0.51
